Data as given in PubChem BioAssay AID1963426 (Molecular Pharmacology Branch, DTP, NCI, 2024).

Tested on: 186277-243-T-J2-PDC complex spheroid growth, % test/control
Assay: Anticancer human tumor 186277-243-T-J2-PDC patient-derived colon adenocarcinoma cell line growth inhibition [Asc]
Conditions: for IC50: curve of first compound; for viability, T/C: stronger effect = lower value
Procedure, shortened: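 Stromal components (HUVEC and hMSC) are co-assembled with the cancer cells into multicellular spheroids. Drugs are then added singly or paired, at concentrations falling by half-log increments from a clinically achievable maximum, capped at 10 microM without known Cmax.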

[1] = second compound 0.1 µM, first compound 0.00316 µM
[2] = second compound 0.1 µM, first compound 0.01 µM
[3] = second compound 0.1 µM, first compound 0.0316 µM
[4] = second compound 0.1 µM, first compound 0.1 µM
[5] = second compound 0.316 µM, first compound 0.00316 µM
[6] = second compound 0.316 µM, first compound 0.01 µM
[7] = second compound 0.316 µM, first compound 0.0316 µM
[8] = second compound 0.316 µM, first compound 0.1 µM
[9] = second compound 1 µM, first compound 0.00316 µM
[10] = second compound 1 µM, first compound 0.01 µM
[11] = second compound 1 µM, first compound 0.0316 µM
[12] = second compound 1 µM, first compound 0.1 µM
[13] = second compound 3.16 µM, first compound 0.00316 µM
[14] = second compound 3.16 µM, first compound 0.01 µM
[15] = second compound 3.16 µM, first compound 0.0316 µM
[16] = second compound 3.16 µM, first compound 0.1 µM
[17] = second compound 10 µM, first compound 0.00316 µM
[18] = second compound 10 µM, first compound 0.01 µM
[19] = second compound 10 µM, first compound 0.0316 µM
[20] = second compound 10 µM, first compound 0.1 µM
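Further: spheroids exposed to agents for 7 days.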
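Wherever viability, T/C is given: 100% = DMSO vehicle control wells.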

## COc1c(OCCCN2CCOCC2)ccc2c3n(c(=NC(=O)c4cnc(N)nc4)nc12)CCN3 + Cc1c(S(C)(=O)=O)c(-c2cc(F)cc(N3CCN(c4ccc(NS(=O)(=O)c5ccc(NC(CCN6CCC(C(=O)OCCCP(=O)(O)O)CC6)CSc6ccccc6)c(S(=O)(=O)C(F)(F)F)c5)cc4)CC3)c2)c(-c2ccc(Cl)cc2)n1C(C)C
Second compound 0.1 µM
  IC50: 43.4 nM
Second compound 0.316 µM
  IC50: 40.2 nM
Second compound 1 µM
  IC50: 33.8 nM
Second compound 3.16 µM
  IC50: 27.2 nM
Second compound 10 µM
  IC50: 31.8 nM
[1]
  viability, T/C: 107%
[2]
  viability, T/C: 101%
[3]
  viability, T/C: 53.2%
[4]
  viability, T/C: 31.5%
Second compound 0.1 µM, first compound 0.316 µM
  viability, T/C: 12.4%
Second compound 0.1 µM, first compound 1 µM
  viability, T/C: 8.11%
[5]
  viability, T/C: 98%
[6]
  viability, T/C: 98.1%
[7]
  viability, T/C: 53.2%
[8]
  viability, T/C: 24.9%
Second compound 0.316 µM, first compound 0.316 µM
  viability, T/C: 7.34%
Second compound 0.316 µM, first compound 1 µM
  viability, T/C: 4.21%
[9]
  viability, T/C: 95.9%
[10]
  viability, T/C: 84.1%
[11]
  viability, T/C: 50.3%
[12]
  viability, T/C: 21.9%
Second compound 1 µM, first compound 0.316 µM
  viability, T/C: 6.19%
Second compound 1 µM, first compound 1 µM
  viability, T/C: 2%
[13]
  viability, T/C: 91.7%
[14]
  viability, T/C: 99.2%
[15]
  viability, T/C: 42.8%
[16]
  viability, T/C: 15.7%
Second compound 3.16 µM, first compound 0.316 µM
  viability, T/C: 2.68%
Second compound 3.16 µM, first compound 1 µM
  viability, T/C: 1.29%
[17]
  viability, T/C: 82.4%
[18]
  viability, T/C: 83.9%
[19]
  viability, T/C: 48%
[20]
  viability, T/C: 15.5%
Second compound 10 µM, first compound 0.316 µM
  viability, T/C: 4.11%
Second compound 10 µM, first compound 1 µM
  viability, T/C: 1.39%

## NC(=O)C(=Cn1cnc(-c2cc(C(F)(F)F)cc(C(F)(F)F)c2)n1)c1cncnc1 + Cc1c(S(C)(=O)=O)c(-c2cc(F)cc(N3CCN(c4ccc(NS(=O)(=O)c5ccc(NC(CCN6CCC(C(=O)OCCCP(=O)(O)O)CC6)CSc6ccccc6)c(S(=O)(=O)C(F)(F)F)c5)cc4)CC3)c2)c(-c2ccc(Cl)cc2)n1C(C)C
Second compound 0.1 µM
  IC50: 108 nM
Second compound 0.316 µM
  IC50: 84.2 nM
Second compound 1 µM
  IC50: 65.7 nM
Second compound 3.16 µM
  IC50: 56.8 nM
Second compound 10 µM
  IC50: 55.4 nM
Second compound 0.1 µM, first compound 0.000949 µM
  viability, T/C: 109%
Second compound 0.1 µM, first compound 0.003 µM
  viability, T/C: 99.3%
Second compound 0.1 µM, first compound 0.00949 µM
  viability, T/C: 113%
Second compound 0.1 µM, first compound 0.03 µM
  viability, T/C: 90.8%
Second compound 0.1 µM, first compound 0.0949 µM
  viability, T/C: 56.2%
Second compound 0.1 µM, first compound 0.3 µM
  viability, T/C: 6.16%
Second compound 0.316 µM, first compound 0.000949 µM
  viability, T/C: 96.3%
Second compound 0.316 µM, first compound 0.003 µM
  viability, T/C: 99%
Second compound 0.316 µM, first compound 0.00949 µM
  viability, T/C: 89.5%
Second compound 0.316 µM, first compound 0.03 µM
  viability, T/C: 94.9%
Second compound 0.316 µM, first compound 0.0949 µM
  viability, T/C: 44.8%
Second compound 0.316 µM, first compound 0.3 µM
  viability, T/C: 4.07%
Second compound 1 µM, first compound 0.000949 µM
  viability, T/C: 96.8%
Second compound 1 µM, first compound 0.003 µM
  viability, T/C: 101%
Second compound 1 µM, first compound 0.00949 µM
  viability, T/C: 101%
Second compound 1 µM, first compound 0.03 µM
  viability, T/C: 98.2%
Second compound 1 µM, first compound 0.0949 µM
  viability, T/C: 27.4%
Second compound 1 µM, first compound 0.3 µM
  viability, T/C: 1.75%
Second compound 3.16 µM, first compound 0.000949 µM
  viability, T/C: 110%
Second compound 3.16 µM, first compound 0.003 µM
  viability, T/C: 99.4%
Second compound 3.16 µM, first compound 0.00949 µM
  viability, T/C: 101%
Second compound 3.16 µM, first compound 0.03 µM
  viability, T/C: 95.8%
Second compound 3.16 µM, first compound 0.0949 µM
  viability, T/C: 13.2%
Second compound 3.16 µM, first compound 0.3 µM
  viability, T/C: 0.68%
Second compound 10 µM, first compound 0.000949 µM
  viability, T/C: 92%
Second compound 10 µM, first compound 0.003 µM
  viability, T/C: 92.4%
Second compound 10 µM, first compound 0.00949 µM
  viability, T/C: 92.5%
Second compound 10 µM, first compound 0.03 µM
  viability, T/C: 91.7%
Second compound 10 µM, first compound 0.0949 µM
  viability, T/C: 13.4%
Second compound 10 µM, first compound 0.3 µM
  viability, T/C: 0.55%

## NC1CCC(NC2CC2c2ccccc2)CC1 (stereo not given) + Cc1c(S(C)(=O)=O)c(-c2cc(F)cc(N3CCN(c4ccc(NS(=O)(=O)c5ccc(NC(CCN6CCC(C(=O)OCCCP(=O)(O)O)CC6)CSc6ccccc6)c(S(=O)(=O)C(F)(F)F)c5)cc4)CC3)c2)c(-c2ccc(Cl)cc2)n1C(C)C
Second compound 0.1 µM
  IC50: > 100 nM
Second compound 0.316 µM
  IC50: > 100 nM
Second compound 1 µM
  IC50: > 100 nM
Second compound 3.16 µM
  IC50: > 100 nM
Second compound 10 µM
  IC50: > 100 nM
Second compound 0.1 µM, first compound 0.000316 µM
  viability, T/C: 102%
Second compound 0.1 µM, first compound 0.001 µM
  viability, T/C: 102%
[1]
  viability, T/C: 96.9%
[2]
  viability, T/C: 94.8%
[3]
  viability, T/C: 94.4%
[4]
  viability, T/C: 91.3%
Second compound 0.316 µM, first compound 0.000316 µM
  viability, T/C: 124%
Second compound 0.316 µM, first compound 0.001 µM
  viability, T/C: 94.3%
[5]
  viability, T/C: 111%
[6]
  viability, T/C: 104%
[7]
  viability, T/C: 89.9%
[8]
  viability, T/C: 78.1%
Second compound 1 µM, first compound 0.000316 µM
  viability, T/C: 99.8%
Second compound 1 µM, first compound 0.001 µM
  viability, T/C: 103%
[9]
  viability, T/C: 113%
[10]
  viability, T/C: 93%
[11]
  viability, T/C: 96.7%
[12]
  viability, T/C: 89%
Second compound 3.16 µM, first compound 0.000316 µM
  viability, T/C: 103%
Second compound 3.16 µM, first compound 0.001 µM
  viability, T/C: 104%
[13]
  viability, T/C: 100%
[14]
  viability, T/C: 92.1%
[15]
  viability, T/C: 95.6%
[16]
  viability, T/C: 91.3%
Second compound 10 µM, first compound 0.000316 µM
  viability, T/C: 98.3%
Second compound 10 µM, first compound 0.001 µM
  viability, T/C: 101%
[17]
  viability, T/C: 97.8%
[18]
  viability, T/C: 92.8%
[19]
  viability, T/C: 97.8%
[20]
  viability, T/C: 98%
